For nine compounds, inhibition of growth results are on record in ChEMBL document CHEMBL1955806, “Design, synthesis, single-crystal and preliminary antitumor activity of novel arenesulfonylimidazolidin-2-ones” (2012).

Structures are written as SMILES.

Common to all, as to assay type: functional
In one assay the test system is HCT-116. In words: Growth inhibition of human HCT116 cells at 10 uM after 48 hrs by sulforhodamine B assay. Particulars: HCT-116, 48 h, read-out: GI.
The test system of the next assay is IGROV-1. In words: Growth inhibition of human IGROV1 cells at 10 uM after 48 hrs by sulforhodamine B assay. Particulars: IGROV-1, 48 h, read-out: GI. For orientation: The SRB assay estimates cell density from bound dye.
A further assay concerns PC-3. Put plainly: Growth inhibition of human PC3 cells at 10 uM after 48 hrs by sulforhodamine B assay. Conditions: PC-3, 48 h, read-out: GI.
Another assay deals with CAKI-1. In words: Growth inhibition of human CAKI-1 cells at 10 uM after 48 hrs by sulforhodamine B assay. Particulars: CAKI-1, 48 h, read-out: GI.
A further assay has as its system UO-31. Put plainly: Growth inhibition of human UO31 cells at 10 uM after 48 hrs by sulforhodamine B assay. Particulars: UO-31, 48 h, read-out: GI.
A further assay deals with UACC-62. In words: Growth inhibition of human UACC62 cells at 10 uM after 48 hrs by sulforhodamine B assay. Conditions: UACC-62, 48 h, read-out: GI.
Another assay relates to SF-295. In words: Growth inhibition of human SF295 cells at 10 uM after 48 hrs by sulforhodamine B assay. Conditions: SF-295, 48 h, read-out: GI.
Another assay relates to MOLT-4. Put plainly: Growth inhibition of human MOLT4 cells at 10 uM after 48 hrs by sulforhodamine B assay. Particulars: MOLT-4, 48 h, read-out: GI.
For another assay, the system named is HOP-92. Put plainly: Growth inhibition of human HOP92 cells at 10 uM after 48 hrs by sulforhodamine B assay. Conditions: HOP-92, 48 h, read-out: GI.

On to `CO[C@H]1NC(=O)N(S(=O)(=O)c2ccc3ccccc3c2)[C@@H]1OC` (relative stereo), for which the inhibition of growth at 10 µM in the assay with HCT-116 was -4.18%; in the assay on IGROV-1, -25.5%; with PC-3 it was 2.1%; with CAKI-1, -7.3%; in the assay with UO-31, 13.7%; in the assay on UACC-62, 1.65%. Besides, in the assay with SF-295, the inhibition of growth at 10 µM was found to be 4.43%.

For the compound `COc1ccc(S(=O)(=O)N2C(=O)N[C@H](OC)[C@H]2OC)cc1` (relative stereo), the inhibition of growth at 10 µM in the assay with HCT-116 is -23.4%; in the assay with IGROV-1, -20.7%; in the assay on PC-3, -2.45%; in the assay on MOLT-4 it was -5.62%; in the assay on CAKI-1, 7.51%; in the assay with SF-295 it was 8.51%.

On to `CO[C@H]1NC(=O)N(S(=O)(=O)c2ccc(Cl)cc2)[C@@H]1OC` (relative stereo), for which the inhibition of growth at 10 µM in the assay on HOP-92 is -13.6%; in the assay with HCT-116 it was -10.3%; in the assay with IGROV-1, -23.9%; in the assay on PC-3, 2.67%; in the assay on CAKI-1, 7.49%; in the assay with UO-31 it was 22%. In addition, the inhibition of growth at 10 µM in the assay on SF-295 came out at 7.91%.

Turning to `COc1ccc(S(=O)(=O)N2C(=O)N[C@H](OC)[C@H]2OC)c(OC)c1` (relative stereo), the inhibition of growth at 10 µM in the assay on IGROV-1 is -13.9%; in the assay on PC-3, 4.15%; in the assay on CAKI-1, 21.2%; in the assay with UO-31 it was 6.25%; in the assay on UACC-62, 8.26%; with SF-295, 2.06%.

Regarding `CO[C@H]1NC(=O)N(S(=O)(=O)c2c(C)cc(C)cc2C)[C@@H]1OC` (relative stereo), the inhibition of growth at 10 µM in the assay with HOP-92 is 21.3%; in the assay on IGROV-1, -7.61%; in the assay with PC-3 it was 4.26%; in the assay on CAKI-1, 15.7%; in the assay with UO-31, 14.7%; with UACC-62, 6.82%.

Turning to `CO[C@@H]1[C@@H](OC)N(S(=O)(=O)c2ccccc2)C(=O)N1S(=O)(=O)c1ccccc1` (relative stereo), the inhibition of growth at 10 µM with HOP-92 is 29.9%; in the assay with HCT-116 it was -2.02%; with IGROV-1 it was 3.06%; in the assay on PC-3 it was 5.78%; in the assay on MOLT-4, 13.3%; in the assay on CAKI-1, 10.4%. In addition, the inhibition of growth at 10 µM is 15% with UO-31, -6.88% in the assay on UACC-62 and -12.3% in the assay on SF-295.

Regarding `COc1ccc(S(=O)(=O)N2C(=O)N(S(=O)(=O)c3ccc(OC)cc3)[C@H](OC)[C@H]2OC)cc1` (relative stereo), the inhibition of growth at 10 µM in the assay on HOP-92 was 61%; in the assay on HCT-116, 8.94%; in the assay with IGROV-1 it was 6.17%; with PC-3, 22.2%; with MOLT-4, 15.6%; in the assay with CAKI-1, 36.8%. In addition, the inhibition of growth at 10 µM in the assay with UO-31 was determined as 35.1%; in the assay on UACC-62, 20.3%; in the assay with SF-295 it was 6.43%.

For `COc1ccc(S(=O)(=O)N2C(=O)N(S(=O)(=O)c3ccc(OC)cc3OC)[C@H](OC)[C@H]2OC)c(OC)c1` (relative stereo), the inhibition of growth at 10 µM with HCT-116 is -2.15%; in the assay with IGROV-1, 3.77%; with PC-3, 15.9%; in the assay with MOLT-4 it was 14.2%; in the assay with CAKI-1, 17.1%; with UO-31, 23.3%. The inhibition of growth at 10 µM with UACC-62 stood at 16%; with SF-295 it was 4.19%.

In the case of `CO[C@@H]1[C@@H](OC)N(S(=O)(=O)c2ccc(Cl)cc2Cl)C(=O)N1S(=O)(=O)c1ccc(Cl)cc1Cl` (relative stereo), the inhibition of growth at 10 µM was 60.2% in the assay with HOP-92; 11.9% in the assay with HCT-116; 4.16% in the assay with IGROV-1; 22.5% in the assay with PC-3; 14.2% in the assay with MOLT-4; 25% with CAKI-1. The inhibition of growth at 10 µM worked out at 15.3% in the assay with UO-31, 4.25% in the assay with UACC-62 and 16% in the assay on SF-295.
